Measured values: patent US20190001106A1, “THERAPEUTIC DELIVERY DEVICE” (priority 2013, published 2019)

Test: preservation of doxorubicin efficacy in the implanted construct
Type: in vivo
Settings: in STID-Dox-PLGA85/15 construct, 3 weeks inside an animal body about 37C

COc1cccc2c1C(=O)c1c(O)c3c(c(O)c1C2=O)C[C@@](O)(C(=O)CO)C[C@@H]3O[C@H]1C[C@H](N)[C@H](O)[C@H](C)O1 [doxorubicin, Doxorubicin]
efficacy of doxorubicin after residence in the construct: efficacy is still preserved
